Values quoted from earlier work in US7198802B2, “Tablet obtained by direct compression comprising 4-amino-1-hydroxybutylidene-1,1-bisphosphonic acid as active ingredient” (Zentiva A.S., priority 2000, dated 2007).

Details: atmospheric relative humidity

| relative humidity at which moisture / water content rises | SMILES |
| --- | --- |
| above 90% | OC[C@H]1O[C@@H](O[C@H]2[C@H](O)[C@@H](O)C(O)O[C@@H]2CO)[C@H](O)[C@@H](O)[C@H]1O (some centres unmarked) [Lactose] |
| about 98% | OC[C@@H](O)[C@@H](O)[C@H](O)[C@H](O)CO [mannitol, Mannitol] |
